Laboratory results as given in patent US10532066B2, “Surfactant lipids, compositions thereof, and uses thereof” (National Jewish Health, priority 2007, dated 2020).

How the values were obtained:
MD-2 = target: T1, MD-2 (Homo sapiens, UniProt Q9Y6Y9); test: MD-2 binding to solid phase phospholipids; conditions: for binding to MD-2: 1.25 nmole lipid per well, MD-2 1 μg/ml
T1 construct: made in house; host or cells: baculovirus-insect cell expression system
T1 sequence (Q9Y6Y9 19-160): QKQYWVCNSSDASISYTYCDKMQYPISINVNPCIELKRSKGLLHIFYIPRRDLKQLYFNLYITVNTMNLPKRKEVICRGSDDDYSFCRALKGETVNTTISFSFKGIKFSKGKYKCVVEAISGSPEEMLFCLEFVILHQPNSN
Procedure: FIG. 16. MD-2 preferentially binds POPG.
The wells were then washed with 20 mM Tris buffer (pH 7.4) containing 0.15 M NaCl and 5 mM CaCl2 or 2 mM EGTA (buffer B), and 1 μg/ml anti-human CD14 IgG or anti-His antibody (50 μl/well) in buffer A was added and incubated overnight at 4° C., followed by the incubation with horseradish peroxidase (HRP)-labeled anti-mouse IgG (1:5000) for 1 h. After washing the wells with buffer B, the peroxidase reaction was finally performed using o-phenylenediamine as a substrate. The binding of CD14 or MD-2 to phospholipids was detected by measuring absorbance at 490 nm.

[1] = test system: differentiated U937 cells; test: LPS-induced TNF-α secretion by differentiated U937 cells; format: cell-based, human; conditions: LPS 10 ng/ml, 6 h, liposomes; LPS without phospholipid = 100%
Procedure: FIG. 1. Anionic phospholipids inhibit inflammatory mediator production induced by LPS. Liposomes composed of sphingomyelin (SM), phosphatidylethanolamine (PE) dipalmitoyl-phosphatidylcholine ((DPPC), phosphatidylserine (PS), palmitoyl-oleoyl-phosphatidylglycerol (POPG) and phosphatidylinositol (PI) were formed by bath-sonication for 30 min at room temperature. LPS (10 ng/ml) and different concentrations of phospholipids were added to monolayer cultures of differentiated U937 cells (A), or primary rat alveolar macrophages (B). At 6 h after stimulation, media were collected and secreted TNF-α levels were determined in U937 cultures. NO production was determined 24 h after stimulating rat alveolar macrophages. LPS stimulation in the absence of phospholipid was set as 100%. […] The average TNF-α production upon LPS stimulation was (8.0±0.54 ng/ml). The average NO production upon LPS stimulation was 12.17±0.27 μM.
FIG. 2. The inhibitory effect of phosphatidylglycerols on LPS-induced inflammatory mediator production is molecular species specific. PG liposomes were formed by bath-sonication for 30 min at room temperature. LPS (10 ng/ml) and different concentrations of PG were added to monolayer cultures of differentiated U937 cells (A) or rat alveolar macrophages (B). Media TNF-α measurements were performed 6 h after stimulation. Media NO measurements were performed 24 h after stimulation. LPS stimulation without PG was set at 100%. The molecular species of PG shown on the graph are 8:0; dioctanoyl-phosphatidylglycerol, 12:0; dilauroyl-phosphatidylglycerol (DLPG), 14:0; dimyristoyl-phosphatidylglycerol (DMPG), 16:0; dipalmitoyl-phosphatidylglycerol (DPPG), 18:0; distearoyl-phosphatidylglycerol, 16:0/18:1; palmitoyl-oleoyl-phosphatidylglycerol (POPG). […] The average TNF-α production upon LPS stimulation was 11.3±0.7 ng/ml. The average NO production upon LPS stimulation was 10.1±0.6 μM.
FIG. 3. […] Surfactant lipid (SL) and POPG were dried under nitrogen, and hydrated at 37° C. for 1 h. (A) SL and POPG were mixed in organic solvents prior to drying and hydrating and subsequently liposomes were produced. (B) SL and POPG were made as independent populations of liposomes that were subsequently mixed prior to macrophage treatment. 10 ng/ml of LPS and different concentrations of liposome mixtures were added to monolayer cultures of differentiated U937 cells. 6 h after stimulation, media were collected and TNF-α production was determined. LPS stimulation without phospholipid was set as 100%. […] The average TNF-α production upon LPS stimulation was 7.0±0.2 ng/ml.
U937 cells were induced to differentiate by treatment with 10 nM phorbol myristate acetate (PMA) for 48 h. The cells (1.3×10^5/well) were placed in 96-well plates and further incubated in the absence of PMA for 24 h in RPMI 1640 medium containing 10% BGS. Rat alveolar macrophages (5×10^5/well) were incubated in 24-well plates for 2 h after isolation. The indicated concentration of phospholipids was added to the cultures 30 min before adding LPS. After LPS addition cultures were incubated for 6 h at 37° C. at an atmosphere of 95% air and 5% CO2. At the end of the incubation period the medium was collected and assayed for TNF-α concentrations using an ELISA kit.
Surfactant lipids were isolated from the bronchioalveolar lavage of Sprague-Dawley rats, 28 days after intratracheal instillation of 25 mg of silica (˜125 mg/kg). Initially, the surfactant was purified by the method of Hawgood et. al. (25) using NaBr density gradient centrifugation. The purified surfactant was extracted with butanol (26) and segregated into butanol-soluble and -insoluble material.

LBP binding to CD14 = target: T2, LBP binding to CD14 (Homo sapiens, UniProt P08571); test: Phospholipid competition for LBP-CD14 binding; conditions: LBP 1 μg/ml, liposomes 20 μg/ml
T2 construct: purchased Cell Sciences Inc. (CD14); R&D systems (LBP)
T2 sequence (P08571 20-345 limits assumed): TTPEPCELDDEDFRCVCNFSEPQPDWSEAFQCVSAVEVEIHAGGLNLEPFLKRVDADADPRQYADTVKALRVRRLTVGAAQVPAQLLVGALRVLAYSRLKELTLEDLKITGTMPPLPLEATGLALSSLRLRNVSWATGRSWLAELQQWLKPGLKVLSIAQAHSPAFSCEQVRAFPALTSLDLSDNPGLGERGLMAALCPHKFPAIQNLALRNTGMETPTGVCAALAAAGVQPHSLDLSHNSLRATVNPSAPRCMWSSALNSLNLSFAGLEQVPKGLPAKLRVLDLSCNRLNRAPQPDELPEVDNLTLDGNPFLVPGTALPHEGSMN
Procedure: CD14 (2 μg) or sTLR4 (100 ng) in aliquots of 20 μl of buffer B were pipeted onto a 96-well plate, and the solvent evaporated using a warm air dryer. […] The amount of bound LBP or MD-2 was detected using specific antibodies.

Compound	binding to MD-2 relative to the POPG value (MD-2; POPG = 100%) [%]	LPS-induced TNF-α production [1]	reduction of the interaction of LBP with CD14 (LBP binding to CD14)	binding to MD-2 (MD-2)
CCCCCCCCCCCCCC(=O)OCC(COP(=O)(O)OCC(O)CO)OC(=O)CCCCCCCCCCCCC (stereo not drawn) [DMPG, dimyristoyl-phosphatidylglycerol]	~50	as potent as POPG		
CCCCCCCCCCCCCCCC(=O)OC[C@H](COP(=O)([O-])OCC[N+](C)(C)C)OC(=O)CCCCCCCCCCCCCCC [DPPC, dipalmitoyl-phosphatidylcholine, reference compound]		no significant effect	not exhibited	
CCCCCCCCCCCCCCCC(=O)OCC(COP(=O)(O)OCC(O)CO)OC(=O)CCCCCCCCCCCCCCC (stereo not drawn) [DPPG, dipalmitoyl-phosphatidylglycerol, reference compound]		failed to antagonize		Neither saturated nor unsaturated PC, nor unsaturated PI, nor DPPG showed any significant binding
CCCCCCCC/C=C\CCCCCCCC(=O)O[C@H](COC(=O)CCCCCCCCCCCCCCC)COP(=O)(O)OCC(O)CO (stereo partly drawn) [POPG, palmitoyl-oleoyl-phosphatidylglycerol]		significantly attenuated	approximately 40%	strongly bound
phosphatidylinositol [PI]		significantly attenuated	not exhibited	Neither saturated nor unsaturated PC, nor unsaturated PI, nor DPPG showed any significant binding
